Numbered stars: 1 amine (or outer) side, 2 acyl side, 3 side chain; on linkers, the order of the positions; unused ones are H or OH. Square brackets hold non-standard residues; d marks the D form. Peptide text beside a SMILES is read from it. * marks the point of attachment. X2 = O=C1CN2CCN(CCN(CC3CCN(CC(=O)*)CC3)CC2)CC(=O)[O][Al]([F])[O]1; Haic = O=C1[C@@H](N[*:1])CCc2cccc3c2N1[C@H](C(=O)[*:2])C3; NH(5-HO-2-oxo-oxolan-4-yl) = O=C1CC(N*)C(O)O1

T1 sequence (P10144 21-247): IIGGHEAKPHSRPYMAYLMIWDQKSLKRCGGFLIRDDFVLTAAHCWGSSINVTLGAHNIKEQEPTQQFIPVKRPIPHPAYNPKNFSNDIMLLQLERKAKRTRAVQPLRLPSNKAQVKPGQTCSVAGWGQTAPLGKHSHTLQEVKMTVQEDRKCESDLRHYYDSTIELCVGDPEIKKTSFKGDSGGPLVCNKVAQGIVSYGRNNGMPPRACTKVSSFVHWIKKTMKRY

This assay concerns the target T1, human granzyme B (Homo sapiens, UniProt P10144).
T1 construct: from tissue; host or cells: human lymphocytes
Put plainly: Competitive binding assay of human granzyme B with Compound ^18F-21-Al radioligand. The conditions noted are these: competition with 20 nM Compound ^18F-21-Al, human lymphocyte GZB, 37° C., 90 minutes. On the procedure: Purpose: To perform competitive binding assays with human granzyme B using Compound ^18F-21-Al to determine IC50 values of potential granzyme B ligands
Initial Plate Preparation (including total binding and non-specific binding): • 1. 78 μL of reaction buffer, as described above, is added to each well in a 96 well plate • 2. For wells used to examine total binding (defined as the binding of the radioligand in the absence of competitors), 2 μL of DMSO is added to give 1% final DMSO concentration for all wells • 3. For wells used to examine non-specific binding (defined as the binding of the radioligand in the presence of 10 μM 21), 2 μL of 1 mM Compound 21 is added to give a final concentration of 10 μM
• 1. Granzyme B (GZB, human lymphocyte) is diluted to 0.5 μg/mL using reaction buffer as described above • 2. 100 μL of 0.5 μg/mL diluted human GzB is added to each well, giving 50 ng per well and a final concentration of 0.25 μg/mL
• 1. DMSO or water is added to the respective compound vial to make 1 mM compound stock solution • 2. 1 mM compound stock solution is serially diluted by ½ log (3.16 fold) by adding 18.5 μL of compound stock to 40 μL of DMSO, mixing by pipetting up and down, and transferring 18.5 μL of the mixture to 40 μL of DMSO. This process is repeated to create 10 dilution points for test compounds. • 3. For wells used to examine ligand binding competition, 2 μL of each dilution is dispensed into the 96 well plates prepared as described above, giving a further dilution of 1/100.
• 1. 200 nM of Compound ^18F-21-Al (10× radioligand stock) is prepared in reaction buffer, aiming for approximately 2 million CPM per 20 μL of solution (input). • 2. 20 μL of radioligand stock is dispensed into each well to give a final concentration per well of 20 nM.
• 1. All 96 wells should have a final volume of 200 μL, and the assay plates are incubated at 37° C. for 90 minutes. • 2. All samples from the assay plates are transferred to MultiScreenHTS FB plates that have been presoaked in PBS buffer, pH 7.4, and filtered using a vacuum manifold. An additional 150 μL of PBS buffer is added to each well in the assay plates and combined to ensure transfer of any remaining samples • 3. MultiScreenHTS FB plates are washed 3× with 150 μL of PBS buffer. • 4. All filters are separated and transferred to individual tubes using Multiscreen punch tips and the Millipore multiple punch apparatus • 5. The sample set is analyzed using the Wizard 2480 automatic gamma-counter [Perkin Elmer] through a [^18F]-specific profile. Values are reported as decay-corrected counts per minute (CPM). • 6. Resulting CPM values are normalized and converted to % inhibition by the following equation:
[formula] • *the total bound fraction is typically less than 10% of the added radioligand under such assay conditions. • Resulting % inhibition values were plotted using the software GraphPad Prism 8.4.3 using the One site—Fit log IC50 equation to determine the IC50 value for each ligand.
[formula] • Y=% Inhibition • X=Log concentration of the cold competing ligand (M) • A=minimum Y (0%) • B=maximum Y (100%) • Log IC50=Log concentration of cold competing ligand (M) at half-way between minimum and maximum Y
For `CC[C@H](C)[C@H](NC(=O)CCNC(=O)CCNC(=O)CN(CC(=O)O)C(=O)CN1CCN(C(=O)CN2CCN3CCN(CC2)CC(=O)[O][Al]([F])[O]C(=O)C3)CC1)C(=O)N[C@H]1CCc2cccc3c2N(C1=O)[C@H](C(=O)NC1CC(=O)OC1O)C3` (stereo partly drawn) [Compound 13-Al, 2,2′-(7-(2-(4-((15S,16S)-3-(carboxymethyl)-15-(((3S,6S)-6-((2-hydroxy-5-oxotetrahydrofuran-3-yl)carbamoyl)-4-oxo-1,2,3,4,6,7-hexahydroazepino[3,2,1-hi]indol-3-yl)carbamoyl)-16-methyl-2,5,9,13-tetraoxo-3,6,10,14-tetraazaoctadecyl)piperazin-1-yl)-2-oxoethyl)-1,4,7-triazonane-1,4-diyl)diacetic acid, aluminum fluoride complex (1:1)], the IC50 – broadly, the concentration needed to halve the response being measured – was 4.2 nM.
As to `CC[C@H](C)[C@H](NC(=O)COCCNC(=O)[C@@H](CCC(=O)O)NC(=O)CN1CCN(C(=O)CN2CCN3CCN(CC2)CC(=O)[O][Al]([F])[O]C(=O)C3)CC1)C(=O)N[C@H]1CCc2cccc3c2N(C1=O)[C@H](C(=O)NC1CC(=O)OC1O)C3` (stereo partly drawn) [Compound 9-Al, 2,2′-(7-(2-(4-((4R,13S,14S)-4-(2-carboxyethyl)-13-(((3S,6S)-6-((2-hydroxy-5-oxotetrahydrofuran-3-yl)carbamoyl)-4-oxo-1,2,3,4,6,7-hexahydroazepino[3,2,1-hi]indol-3-yl)carbamoyl)-14-methyl-2,5,11-trioxo-9-oxa-3,6,12-triazahexadecyl)piperazin-1-yl)-2-oxoethyl)-1,4,7-triazonane-1,4-diyl)diacetic acid, aluminum fluoride complex (1:1)], the half-inhibitory concentration (IC50) was 3.5 ± 0.78 nM.
Regarding `CC[C@H](C)[C@H](NC(=O)CCNC(=O)CC[C@H](NC(=O)CN1CCC(CN2CCN3CCN(CC2)CC(=O)[O][Al]([F])[O]C(=O)C3)CC1)C(=O)O)C(=O)N[C@H]1CCc2cccc3c2N(C1=O)[C@H](C(=O)NC1CC(=O)OC1O)C3` (stereo partly drawn) [Compound 6-Al, 2,2′-(7-((1-(2-(((1S)-1-carboxy-4-((3-(((2S,3S)-1-(((3S,6S)-6-((2-hydroxy-5-oxotetrahydrofuran-3-yl)carbamoyl)-4-oxo-1,2,3,4,6,7-hexahydroazepino[3,2,1-hi]indol-3-yl)amino)-3-methyl-1-oxopentan-2-yl)amino)-3-oxopropyl)amino)-4-oxobutyl)amino)-2-oxoethyl)piperidin-4-yl)methyl)-1,4,7-triazonane-1,4-diyl)diacetic acid, aluminum fluoride complex (1:1)], the IC50 is 4.5 nM.
Turning to `CC[C@H](C)[C@H](NC(=O)CCNC(=O)CCNC(=O)[C@H](CC(C(=O)O)C(=O)O)NC(=O)CN1CCN(C(=O)CN2CCN3CCN(CC2)CC(=O)[O][Al]([F])[O]C(=O)C3)CC1)C(=O)N[C@H]1CCc2cccc3c2N(C1=O)[C@H](C(=O)NC1CC(=O)OC1O)C3` (stereo partly drawn) [Compound 15-Al, 2-((2S)-2-(2-(4-(2-(4,7-bis(carboxymethyl)-1,4,7-triazonan-1-yl)acetyl)piperazin-1-yl)acetamido)-3-((3-((3-(((2S,3S)-1-(((3S,6S)-6-((2-hydroxy-5-oxotetrahydrofuran-3-yl)carbamoyl)-4-oxo-1,2,3,4,6,7-hexahydroazepino[3,2,1-hi]indol-3-yl)amino)-3-methyl-1-oxopentan-2-yl)amino)-3-oxopropyl)amino)-3-oxopropyl)amino)-3-oxopropyl) malonic acid, aluminum fluoride complex (1:1)], the IC50 came out at 2.5 nM.
Take `CC[C@H](C)[C@H](NC(=O)CCNC(=O)[C@@H](CCC(=O)O)NC(=O)CCNC(=O)CN1CCC(CN2CCN3CCN(CC2)CC(=O)[O][Al]([F])[O]C(=O)C3)CC1)C(=O)N[C@H]1CCc2cccc3c2N(C1=O)[C@H](C(=O)NC1CC(=O)OC1O)C3` (stereo partly drawn) [Compound 7-Al, 2,2′-(7-((1-((8R,15S,16S)-8-(2-carboxyethyl)-15-(((3S,6S)-6-((2-hydroxy-5-oxotetrahydrofuran-3-yl)carbamoyl)-4-oxo-1,2,3,4,6,7-hexahydroazepino[3,2,1-hi]indol-3-yl)carbamoyl)-16-methyl-2,6,9,13-tetraoxo-3,7,10,14-tetraazaoctadecyl)piperidin-4-yl)methyl)-1,4,7-triazonane-1,4-diyl)diacetic acid, aluminum fluoride complex (1:1)]: the IC50 stood at 6.7 nM.
Consider `CC[C@H](C)[C@H](NC(=O)CCNC(=O)CCNC(=O)[C@@H](CCC(=O)O)NC(=O)CN1CCN(C(=O)CN2CCN3CCN(CC2)CC(=O)[O][Al]([F])[O]C(=O)C3)CC1)C(=O)N[C@H]1CCc2cccc3c2N(C1=O)[C@H](C(=O)NC1CC(=O)OC1O)C3` (stereo partly drawn) [Compound 12-Al, 2,2′-(7-(2-(4-((4R,15S,16S)-4-(2-carboxyethyl)-15-(((3S,6S)-6-((2-hydroxy-5-oxotetrahydrofuran-3-yl)carbamoyl)-4-oxo-1,2,3,4,6,7-hexahydroazepino[3,2,1-hi]indol-3-yl)carbamoyl)-16-methyl-2,5,9,13-tetraoxo-3,6,10,14-tetraazaoctadecyl)piperazin-1-yl)-2-oxoethyl)-1,4,7-triazonane-1,4-diyl)diacetic acid, aluminum fluoride complex (1:1)], for which the IC50 worked out at 4.2 nM.
To `CC[C@H](C)[C@H](NC(=O)COCCNC(=O)[C@@H](CCC(=O)O)NC(=O)[C@@H](CCC(=O)O)NC(=O)CN1CCN(C(=O)CN2CCN3CCN(CC2)CC(=O)[O][Al]([F])[O]C(=O)C3)CC1)C(=O)N[C@H]1CCc2cccc3c2N(C1=O)[C@H](C(=O)NC1CC(=O)OC1O)C3` (stereo partly drawn) [Compound 10-Al, 2,2′-(7-(2-(4-((4R,7R,16S,17S)-4,7-bis(2-carboxyethyl)-16-(((3S,6S)-6-((2-hydroxy-5-oxotetrahydrofuran-3-yl)carbamoyl)-4-oxo-1,2,3,4,6,7-hexahydroazepino[3,2,1-hi]indol-3-yl)carbamoyl)-17-methyl-2,5,8,14-tetraoxo-12-oxa-3,6,9,15-tetraazanonadecyl)piperazin-1-yl)-2-oxoethyl)-1,4,7-triazonane-1,4-diyl)diacetic acid, aluminum fluoride complex (1:1)] belongs 3.6 nM; to `CC[C@H](C)[C@H](NC(=O)CCNC(=O)CN(CC(=O)O)C(=O)CCNC(=O)CN1CCC(CN2CCN3CCN(CC2)CC(=O)[O][Al]([F])[O]C(=O)C3)CC1)C(=O)N[C@H]1CCc2cccc3c2N(C1=O)[C@H](C(=O)NC1CC(=O)OC1O)C3` (stereo partly drawn) [Compound 3-Al, 2,2′-(7-((1-((15S,16S)-7-(carboxymethyl)-15-(((3S,6S)-6-((2-hydroxy-5-oxotetrahydrofuran-3-yl)carbamoyl)-4-oxo-1,2,3,4,6,7-hexahydroazepino[3,2,1-hi]indol-3-yl)carbamoyl)-16-methyl-2,6,9,13-tetraoxo-3,7,10,14-tetraazaoctadecyl)piperidin-4-yl)methyl)-1,4,7-triazonane-1,4-diyl)diacetic acid, aluminum fluoride complex (1:1)], 4.7 nM; to `CC[C@H](C)[C@H](NC(=O)CNC(=O)CNC(=O)[C@H](CCC(=O)O)NC(=O)CN1CCC(CN2CCN3CCN(CC2)CC(=O)[O][Al]([F])[O]C(=O)C3)CC1)C(=O)N[C@H]1CCc2cccc3c2N(C1=O)[C@H](C(=O)NC1CC(=O)OC1O)C3` (stereo partly drawn) [Compound 2-Al, 2,2′-(7-((1-((4S,13S,14S)-4-(2-carboxyethyl)-13-(((3S,6S)-6-((2-hydroxy-5-oxotetrahydrofuran-3-yl)carbamoyl)-4-oxo-1,2,3,4,6,7-hexahydroazepino[3,2,1-hi]indol-3-yl)carbamoyl)-14-methyl-2,5,8,11-tetraoxo-3,6,9,12-tetraazahexadecyl)piperidin-4-yl)methyl)-1,4,7-triazonane-1,4-diyl)diacetic acid aluminum fluoride complex (1:1)] (X2-EGGI[Haic]-{NH(5-HO-2-oxo-oxolan-4-yl)}), 7.5 nM.

(Values after patent US20260158177A1, “COMPOUNDS SPECIFIC TO GRANZYME B AND USES THEREOF” (CYTOSITE BIOPHARMA INC., priority 2021, published 2026).)
